Reference: patent US6555570B2, “Compounds with growth hormone releasing properties” (Novo Nordisk A/S, priority 1995, dated 2003)
Where a name gives a salt, the structure may show the parent alone.

melting point: 138 to 145 °C
Compound: CN(C(=O)[C@@H](Cc1ccc2ccccc2c1)N(C)C(=O)/C=C/CC(C)(C)N)[C@@H](CNC(=S)NC1CC1)Cc1ccccc1 (as salt: trifluoroacetic acid salt)
